# In patent US8742082B2, “Compositions and methods for influencing satiety, lipid metabolism, and fat utilization” (Nestec S.A., priority 2008, dated 2014):
# Legend:
# Format in all cases: in vivo
# [1] = system: Fatty acid amide hydrolase (FAAH); experiment: Real-time PCR gene expression in peripheral tissues: FAAH; conditions: C57bl6j mice, high fat diet, 100 mg/kg/body weight in diet, 5 weeks
# Procedure: (§1) The expression of 45 genes was measured by real-time PCR in peripheral tissues to identify genes that were differentially expressed in response to oral administration of oleoylethanolamide (OEA) or a non-hydrolysable OEA analog (KDS 5104), which affect satiety, lipid metabolism, fat utilization, food intake, and body fat mass.
# (§2) Animals, diet, and experimental design. Adult male C57bl6j mice purchased at 8 weeks of age were individually housed and maintained ad libitum on high fat diet and water for 2 weeks. Seven mice were randomly allocated in 3 groups and fed with a high fat diet (lipids represented 50% of daily energy) for 2 weeks. For one kilogram, the composition of the high fat diet was: 235 g casein, 201 g saccharose, 3.5 g L-cystine, 85 g starch, 116 g maltodextrin, 60 g cellulose, 12 g vitamins mix (AIN-93M, UPAE, Jouy-en-Josas, France), 51.5 g mineral mix (AIN-93Vx, UPAE, Jouy-en-Josas, France), and 236 g lard. Then, either OEA or KDS 5104 was added to the diet at a concentration of 100 mg/kg/body weight. The mice were kept under treatment for 5 weeks.
# (§3) Sampling. At the end of the experimental period, mice were sacrificed by blood drawing (cardiac puncture) after anesthesia with isoflurane. Plasma was obtained by centrifugation (1,000 g for 10 min at 4° C.). Mesenteric, epididymal, inguinal and peritoneal adipose depots, as well as liver, stomach, small intestine mucosa, pancreas, and gastrocnemian muscle were removed and frozen into liquid nitrogen. Plasma, urine, feces, and organ samples were kept at −80° C. until analysis.
# (§4) RNA extraction and gene expression. Total RNA from liver, intestine mucous membrane, adipose tissues, gastrocnemian muscle, pancreas and stomach were extracted with TRIzol reagent (Invitrogen, Carlsbad, USA) according to the manufacturer's instruction. The RNA concentration was determined on nanodrop from the absorbance at 260 nm. Retro-transcription PCRs to synthesize cDNA were performed using an Applied Biosystem Thermal Cycler 2720 and Superscript II (Invitrogen, Carlsbad, USA) according to manufacturer's protocol. Real-time quantitative PCR (RT-qPCR) were performed on cDNA obtained as described above using a high through put system (Biomek 3000, Beckman & Coulter, Fullerton, USA) and a Lightcycler 480 (Roche/Hitachi, Basel, Switzerland) with SYBR Green Master mix+kit (Eurogentec, Philadelphia, USA). Primers for the selected genes were generated using online informatics assistance from the Lightcycler manufacturer (Roche). Databases used to identify the genes were (1) the NCBI database (GenBank) and (2) the IHOP (Information Hyperlinked over Protein) database (www.ihop-net.org/UniPub/iHOP/bng/). Values were expressed as ratio of RNA levels relative to control mice (diets with 0 mg of OEA/kg/body weight) using ΔΔ(Ct) (Livak K J & Schmittgen T D, 2001, Methods 25:402-8). Gene expression of the following genes was measured (abbreviation and GenBank Accession shown in parentheses).
# (§5) Statistical analysis. […] Statistical analysis of physiological parameters and gene expression data was performed by one-way ANOVA on Statview software (SAS Institute, Cary, USA). Daily food intake was analyzed using two-way ANOVA on Statview software. Statistical significance was set up at the P<0.05 level, the P<0.01 level and the P<0.001 level. For statistical analysis of the gene expression data, values were calculated relative to 18S expression for each mouse and gene.
# [2] = system: Oleoylethanolamide synthase (OEA synthase); experiment: Real-time PCR gene expression in peripheral tissues: OEA synthase; conditions: proximal intestine; C57bl6j mice, high fat diet, 100 mg/kg/body weight in diet, 5 weeks
# Procedure: as §1
# (§6) Animals, diet, and experimental design. Adult male C57bl6j mice purchased at 8 weeks of age were individually housed and maintained ad libitum on high fat diet and water for 2 weeks. Seven mice were randomly allocated in 3 groups and fed with a high fat diet (lipids represented 50% of daily energy) for 2 weeks. […]
# (§7) RNA extraction and gene expression. […] The RNA concentration was determined on nanodrop from the absorbance at 260 nm. […] Real-time quantitative PCR (RT-qPCR) were performed on cDNA obtained as described above using a high through put system (Biomek 3000, Beckman & Coulter, Fullerton, USA) and a Lightcycler 480 (Roche/Hitachi, Basel, Switzerland) with SYBR Green Master mix+kit (Eurogentec, Philadelphia, USA). […] Values were expressed as ratio of RNA levels relative to control mice (diets with 0 mg of OEA/kg/body weight) using ΔΔ(Ct) (Livak K J & Schmittgen T D, 2001, Methods 25:402-8). Gene expression of the following genes was measured (abbreviation and GenBank Accession shown in parentheses). […]
# CPT1 = experiment: Real-time PCR gene expression in peripheral tissues: CPT1; conditions: C57bl6j mice, high fat diet, 100 mg/kg/body weight in diet, 5 weeks
# Procedure: as §1, §2, §3, §4, §5
# AcylCoA oxidase (ACO) = experiment: Real-time PCR gene expression in peripheral tissues: ACO; conditions: liver; C57bl6j mice, high fat diet, 100 mg/kg/body weight in diet, 5 weeks
# Procedure: as §1, §6, §7
# [3] = system: Sterol regulatory element binding protein-C 2 (SREBP2 1); experiment: Real-time PCR gene expression in peripheral tissues: SREBP2; conditions: liver; C57bl6j mice, high fat diet, 100 mg/kg/body weight in diet, 5 weeks
# Procedure: as §1, §6, §7
# Cholescystokinin (CCK) = experiment: Real-time PCR gene expression in peripheral tissues: CCK; conditions: proximal intestine; C57bl6j mice, high fat diet, 100 mg/kg/body weight in diet, 5 weeks
# Procedure: as §1, §6, §7
# [4] = system: Fatty Acid Synthase (FAS 1); experiment: Real-time PCR gene expression in peripheral tissues: FAS; conditions: liver; C57bl6j mice, high fat diet, 100 mg/kg/body weight in diet, 5 weeks
# Procedure: as §1, §6, §7
# [5] = system: G protein coupled receptor 119 (GPR 119); experiment: Real-time PCR gene expression in peripheral tissues: GPR119; conditions: proximal intestine; C57bl6j mice, high fat diet, 100 mg/kg/body weight in diet, 5 weeks
# Procedure: as §1, §6, §7
# [6] = system: N-acylsphingosine amidohydrolase-like (NAAA); experiment: Real-time PCR gene expression in peripheral tissues: NAAA; conditions: C57bl6j mice, high fat diet, 100 mg/kg/body weight in diet, 5 weeks
# Procedure: as §1, §2, §3, §4, §5
# [7] = system: Phosphoenolpyruvate carboxykinase (PEP CK); experiment: Real-time PCR gene expression in peripheral tissues: PepCK; conditions: liver; C57bl6j mice, high fat diet, 100 mg/kg/body weight in diet, 5 weeks
# Procedure: as §1, §6, §7
# Ghrelin = experiment: Real-time PCR gene expression in peripheral tissues: ghrelin; conditions: stomach; C57bl6j mice, high fat diet, 100 mg/kg/body weight in diet, 5 weeks
# Procedure: as §1, §6, §7
# [8] = system: Sterol regulatory element binding protein-c 1 (SREBP 1c); experiment: Real-time PCR gene expression in peripheral tissues: SREBP1c; conditions: C57bl6j mice, high fat diet, 100 mg/kg/body weight in diet, 5 weeks
# Procedure: as §1, §2, §3, §4, §5
# [9] = system: Glucose transporter 4 (Glut 4); experiment: Real-time PCR gene expression in peripheral tissues: Glut 4; conditions: muscle; C57bl6j mice, high fat diet, 100 mg/kg/body weight in diet, 5 weeks
# Procedure: as §1, §6, §7
# [10] = system: Glucose 6-phosphatase (G6P); experiment: Real-time PCR gene expression in peripheral tissues: G6P; conditions: liver; C57bl6j mice, high fat diet, 100 mg/kg/body weight in diet, 5 weeks
# Procedure: as §1, §6, §7
# [11] = system: Peroxisome proliferator activated receptor alpha (PPAR α); experiment: Real-time PCR gene expression in peripheral tissues: PPAR α; conditions: proximal intestine; C57bl6j mice, high fat diet, 100 mg/kg/body weight in diet, 5 weeks
# Procedure: as §1, §6, §7
structure (smiles),measurement,setting,value
"CCCCCCCC/C=C\CCCCCCCC(=O)N[C@H](C)CO [KDS 5104, (Z)—(R)-9-octadecenamide, N-(2-hydroxyethyl, 1-methyl)]","FAAH at ep, ratio of RNA levels relative to control mice",[1]; epidydimal adipose tissue,9.71
same,"FAAH at per, ratio of RNA levels relative to control mice",[1]; peritoneal adipose tissue,3.82
same,"FAAH i, ratio of RNA levels relative to control mice",[1]; proximal intestine,1.28
same,"OEA synthase i, ratio of RNA levels relative to control mice",[2],−1.36
same,"CPT1 l, ratio of RNA levels relative to control mice",CPT1; liver,1.06
same,"CPT1 p, ratio of RNA levels relative to control mice",CPT1; pancreas,1.80
same,"CPT1 i, ratio of RNA levels relative to control mice",CPT1; proximal intestine,1.63
same,"ACO l, ratio of RNA levels relative to control mice",AcylCoA oxidase (ACO),1.15
same,"SREBP2 l, ratio of RNA levels relative to control mice",[3],1.13
same,"CCK i, ratio of RNA levels relative to control mice",Cholescystokinin (CCK),1.62
same,"FAS l, ratio of RNA levels relative to control mice",[4],2.47
same,"GPR119 i, ratio of RNA levels relative to control mice",[5],4.95
same,"NAAA at ep, ratio of RNA levels relative to control mice",[6]; epidydimal adipose tissue,1.38
same,"NAAA at per, ratio of RNA levels relative to control mice",[6]; peritoneal adipose tissue,1.52
same,"NAAA i, ratio of RNA levels relative to control mice",[6]; proximal intestine,1.60
same,"PepCK l, ratio of RNA levels relative to control mice",[7],1.55
same,"ghrelin s, ratio of RNA levels relative to control mice",Ghrelin,1.04
same,"SREBP1c at ep, ratio of RNA levels relative to control mice",[8]; epidydimal adipose tissue,1.00
same,"SREBP1c l, ratio of RNA levels relative to control mice",[8]; liver,1.47
same,"SREBP1c at per, ratio of RNA levels relative to control mice",[8]; peritoneal adipose tissue,−1.35
same,"Glut 4 m, ratio of RNA levels relative to control mice",[9],5.70
same,"G6P l, ratio of RNA levels relative to control mice",[10],2.12
same,"PPAR α i, ratio of RNA levels relative to control mice",[11],1.02
